Results as given in patent US20230339952A1, “MACROCYCLIC HETEROCYCLES AND USES THEREOF” (Kumquat Biosciences Inc., priority 2022, published 2023).

Tests used:
[1] = target: SOS1 (Homo sapiens (Human), UniProt Q07889); experiment: Ras-SOS interaction assay (HTRF), K-Ras G13D utilized; type: binding; conditions: K-Ras G13D, read-out: SOS1 IC50
[2] = tested on: NCI-H1975 (ATCC CRL-5908) cell line comprising an EGFR T790M L858R double mutation; experiment: EGFR-SOS cellular inhibition assay (CellTiter-Glo cell proliferation); type: cell-based; conditions: Homo sapiens, 120 h; NCI-H1975 cell proliferation, approximately 5 days; read-out: H1975 IC50
Method: A CellTiter-Glo (CTG) luminescent based assay (Promega) is used to assess growth of the cells, as a measurement of the ability of the compounds herein to inhibit EGFR signaling in the cells. […] The day after plating, cells are treated with a dilution series (e.g., a 9 point 3-fold dilution series) of the compounds herein (e.g., approximately 125 μL final volume per well).

Chain of SOS1 (Q07889 564-1049): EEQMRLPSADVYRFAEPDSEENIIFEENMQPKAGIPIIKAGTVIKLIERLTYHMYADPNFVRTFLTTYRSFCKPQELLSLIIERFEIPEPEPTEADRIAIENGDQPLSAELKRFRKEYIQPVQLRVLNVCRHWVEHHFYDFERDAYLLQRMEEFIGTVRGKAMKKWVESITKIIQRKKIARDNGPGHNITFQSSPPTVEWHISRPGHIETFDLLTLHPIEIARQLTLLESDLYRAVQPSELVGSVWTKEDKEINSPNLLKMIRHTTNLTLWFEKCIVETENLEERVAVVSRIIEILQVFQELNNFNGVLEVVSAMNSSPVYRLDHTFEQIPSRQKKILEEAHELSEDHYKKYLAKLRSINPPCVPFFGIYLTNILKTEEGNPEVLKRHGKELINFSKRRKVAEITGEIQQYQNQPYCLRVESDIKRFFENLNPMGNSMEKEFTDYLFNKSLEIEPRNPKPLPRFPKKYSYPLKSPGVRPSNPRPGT

IC50 [1] [nM] | IC50 [2] [nM] | Structure (SMILES)
< 100 | < 1000 | Cc1nc2c3cc(C4(C#N)CC4)c(=O)n(c3n1)CCCCCCCCOCC(F)(F)c1cccc(c1F)[C@@H](C)N2 [Compound 49, 1-((3R)-4^2,5,5-trifluoro-1^2,3-dimethyl-1^7-oxo-1^7,1^8-dihydro-7-oxa-2-aza-1(4,8)-pyrido[2,3-d]pyrimidina-4(1,3)-benzenacyclopentadecaphane-1^6-yl)cyclopropane-1-carbonitrile]
< 100 | < 1000 | CC(C)N1CCN(c2cc3c4ncnc3n(c2=O)CCCCCCN2CCC(CC2)CC(F)(F)c2cccc(c2)[C@@H](C)N4)CC1 [Compound 50, (3R)-5,5-difluoro-1^6-(4-isopropylpiperazin-1-yl)-3-methyl-1^7,1^8-dihydro-2-aza-1(4,8)-pyrido[2,3-d]pyrimidina-7(4,1)-piperidina-4(1,3)-benzenacyclotridecaphan-1^7-one]
< 100 | < 1000 | C[C@H]1Nc2ncnc3c2cc(C2(C#N)CC2)c(=O)n3CC(=O)N(C)CCCCN2CCC(CC2)C(F)(F)c2cccc1c2 [Compound 52, 1-((4R)-2,2-difluoro-4,9-dimethyl-6^7,8-dioxo-6^7,6^8-dihydro-5,9-diaza-6(4,8)-pyrido[2,3-d]pyrimidina-1(4,1)-piperidina-3(1,3)-benzenacyclotridecaphane-6^6-yl)cyclopropane-1-carbonitrile]
< 100 | < 1000 | CC(C)N1CCN(c2cc3c4ncnc3n(c2=O)CC(=O)NCCCCN2CCC(CC2)C(F)(F)c2cccc(c2)[C@@H](C)N4)CC1 [Compound 53, (4R)-2,2-difluoro-6^6-(4-isopropylpiperazin-1-yl)-4-methyl-6^7,6^8-dihydro-5,9-diaza-6(4,8)-pyrido[2,3-d]pyrimidina-1(4,1)-piperidina-3(1,3)-benzenacyclotridecaphane-6^7,8-dione]
< 100 | < 1000 | C[C@H]1Nc2ncnc3c2cc(C2CCS(=O)(=O)CC2)c(=O)n3CCCCCC(C)(C)CN2CCC(CC2)C(F)(F)c2cccc1c2 [Compound 55, (4R)-6^6-(1,1-dioxidotetrahydro-2H-thiopyran-4-yl)-2,2-difluoro-4,12,12-trimethyl-6^7,6^8-dihydro-5-aza-6(4,8)-pyrido[2,3-d]pyrimidina-1(4,1)-piperidina-3(1,3)-benzenacyclotridecaphan-6^7-one]
< 100 | < 1000 | C[C@H]1Nc2ncnc3c2cc(N2CCN(C)CC2)c(=O)n3CCCCCCCN2CCC(CC2)C(F)(F)c2cccc1c2F [Compound 57, (4R)-3^2,2,2-trifluoro-4-methyl-6^6-(4-methylpiperazin-1-yl)-6^7,6^8-dihydro-5-aza-6(4,8)-pyrido[2,3-d]pyrimidina-1(4,1)-piperidina-3(1,3)-benzenacyclotridecaphan-6^7-one]
< 100 | < 1000 | C[C@H]1Nc2ncnc3c2cc(C2(C#N)CC2)c(=O)n3CCCCCC(O)CN2CCC(CC2)C(F)(F)c2cccc1c2 (stereo partly drawn) [Compound 58, 1-((4R)-2,2-difluoro-12-hydroxy-4-methyl-6^7-oxo-6^7,6^8-dihydro-5-aza-6(4,8)-pyrido[2,3-d]pyrimidina-1(4,1)-piperidina-3(1,3)-benzenacyclotridecaphane-6^6-yl)cyclopropane-1-carbonitrile]
< 100 | < 1000 | C[C@H]1Nc2ncnc3c2cc(C2CCS(=O)(=O)CC2)c(=O)n3CC(=O)NCCCCN2CCC(CC2)C(F)(F)c2cccc1c2 [Compound 60, (4R)-6^6-(1,1-dioxidotetrahydro-2H-thiopyran-4-yl)-2,2-difluoro-4-methyl-6^7,6^8-dihydro-5,9-diaza-6(4,8)-pyrido[2,3-d]pyrimidina-1(4,1)-piperidina-3(1,3)-benzenacyclotridecaphane-6^7,8-dione]
< 100 | < 1000 | C[C@H]1Nc2ncnc3c2cc(C2CCS(=O)(=O)CC2)c(=O)n3CCCOCCCCN2CCC(CC2)C(F)(F)c2cccc1c2 [Compound 62, (4R)-66-(1,1-dioxidotetrahydro-2H-thiopyran-4-yl)-2,2-difluoro-4-methyl-67,68-dihydro-10-oxa-5-aza-6(4,8)-pyrido[2,3-d]pyrimidina-1(4,1)-piperidina-3(1,3)-benzenacyclotetradecaphan-67-one]
< 100 | < 1000 | CC1CCCCCCn2c(=O)c(C3(C#N)CC3)cc3c(ncnc32)N[C@H](C)c2cccc(c2)C(F)(F)C2CCN1CC2 (stereo partly drawn) [Compound 63, 1-((4R)-2,2-difluoro-4,13-dimethyl-6^7-oxo-6^7,6^8-dihydro-5-aza-6(4,8)-pyrido[2,3-d]pyrimidina-1(4,1)-piperidina-3(1,3)-benzenacyclotridecaphane-6^6-yl)cyclopropane-1-carbonitrile]
< 100 | < 1000 | C[C@H]1Nc2ncnc3c2cc(N2CCOCC2)c(=O)n3CCCCCCCN2CCC(CC2)C(F)(F)c2cccc1c2 [Compound 64, (4R)-2,2-difluoro-4-methyl-6^6-morpholino-6^7,6^8-dihydro-5-aza-6(4,8)-pyrido[2,3-d]pyrimidina-1(4,1)-piperidina-3(1,3)-benzenacyclotridecaphan-6^7-one]
< 100 | < 1000 | C[C@H]1Nc2ncnc3c2cc(C2(C#N)CC2)c(=O)n3CCCC/C=C/CN2CCC(CC2(C)C)C(F)(F)c2cccc1c2 (stereo partly drawn) [Compound 70, 1-((4R,E)-2,2-difluoro-1^2,1^2,4-trimethyl-6^7-oxo-6^7,6^8-dihydro-5-aza-6(4,8)-pyrido[2,3-d]pyrimidina-1(4,1)-piperidina-3(1,3)-benzenacyclotridecaphan-11-en-6^6-yl)cyclopropane-1-carbonitrile]
< 100 | < 1000 | C[C@H]1Nc2ncnc3c2cc(C2(C#N)CC2)c(=O)n3CCNC(=O)CCCN2CCC(CC2)C(F)(F)c2cccc1c2 [Compound 71, 1-((4R)-2,2-difluoro-4-methyl-6^7,10-dioxo-6^7,6^8-dihydro-5,9-diaza-6(4,8)-pyrido[2,3-d]pyrimidina-1(4,1)-piperidina-3(1,3)-benzenacyclotridecaphane-6^6-yl)cyclopropane-1-carbonitrile]
< 100 | < 1000 | C[C@@H]1CCCNC(=O)Cn2c(=O)c(C3(C#N)CC3)cc3c(ncnc32)N[C@H](C)c2cccc(c2F)C(F)(F)C2CCN1CC2 [Compound 72, 1-((4R,13R)-3^2,2,2-trifluoro-4,13-dimethyl-6^7,8-dioxo-6^7,6^8-dihydro-5,9-diaza-6(4,8)-pyrido[2,3-d]pyrimidina-1(4,1)-piperidina-3(1,3)-benzenacyclotridecaphane-6^6-yl)cyclopropane-1-carbonitrile]
< 100 | < 1000 | CC(C)N1CCC(c2cc3c4ncnc3n(c2=O)CCCCCCCN2CCC(CC2)C(F)(F)c2cccc(c2)[C@@H](C)N4)CC1 [Compound 73, (4R)-2,2-difluoro-6^6-(1-isopropylpiperidin-4-yl)-4-methyl-6^7,6^8-dihydro-5-aza-6(4,8)-pyrido[2,3-d]pyrimidina-1(4,1)-piperidina-3(1,3)-benzenacyclotridecaphan-6^7-one]
< 100 | < 1000 | C[C@H]1Nc2ncnc3c2cc(C2CCS(=O)(=O)CC2)c(=O)n3CCCC/C=C/CN2CCC(CC2(C)C)C(F)(F)c2cccc1c2 (stereo partly drawn) [Compound 74, (4R,E)-6^6-(1,1-dioxidotetrahydro-2H-thiopyran-4-yl)-2,2-difluoro-1^2,1^2,4-trimethyl-6^7,6^8-dihydro-5-aza-6(4,8)-pyrido[2,3-d]pyrimidina-1(4,1)-piperidina-3(1,3)-benzenacyclotridecaphan-11-en-6^7-one]
< 100 | < 1000 | C[C@H]1Nc2ncnc3c2cc(C2(C#N)CCOCC2)c(=O)n3CCCCCCCN2CCC(CC2)C(F)(F)c2cccc1c2 [Compound 76, 4-((4R)-2,2-difluoro-4-methyl-6^7-oxo-6^7,6^8-dihydro-5-aza-6(4,8)-pyrido[2,3-d]pyrimidina-1(4,1)-piperidina-3(1,3)-benzenacyclotridecaphane-6^6-yl)tetrahydro-2H-pyran-4-carbonitrile]
< 100 | < 1000 | CC(C)N1CCN(c2cc3c4ncnc3n(c2=O)CCCOCCCCN2CCC(CC2)C(F)(F)c2cccc(c2F)[C@@H](C)N4)CC1 [Compound 77, (4R)-3^2,2,2-trifluoro-6^6-(4-isopropylpiperazin-1-yl)-4-methyl-6^7,6^8-dihydro-10-oxa-5-aza-6(4,8)-pyrido[2,3-d]pyrimidina-1(4,1)-piperidina-3(1,3)-benzenacyclotetradecaphan-6^7-one]
< 100 | < 1000 | C[C@H]1Nc2ncnc3c2cc(C2CCS(=O)(=O)CC2)c(=O)n3CC(=O)N(C)CCCCN2CCC(CC2(C)C)C(F)(F)c2cccc1c2 (stereo partly drawn) [Compound 78, (1^4R,4R)-6^6-(1,1-dioxidotetrahydro-2H-thiopyran-4-yl)-2,2-difluoro-1^2,1^2,4,9-tetramethyl-6^7,6^8-dihydro-5,9-diaza-6(4,8)-pyrido[2,3-d]pyrimidina-1(4,1)-piperidina-3(1,3)-benzenacyclotridecaphane-6^7,8-dione]
< 100 | < 1000 | C/C1=C\CCCCn2c(=O)c(C3CCS(=O)(=O)CC3)cc3c(ncnc32)N[C@H](C)c2cccc(c2)C(F)(F)C2CCN(CC2)C1 [Compound 80, (4R,E)-6^6-(1,1-dioxidotetrahydro-2H-thiopyran-4-yl)-2,2-difluoro-4,12-dimethyl-6^7,6^8-dihydro-5-aza-6(4,8)-pyrido[2,3-d]pyrimidina-1(4,1)-piperidina-3(1,3)-benzenacyclotridecaphan-11-en-6^7-one]
< 100 | < 1000 | C[C@H]1Nc2ncnc3c2cc(C2CCS(=O)(=O)CC2)c(=O)n3CCCCCCCN2CCC(CC2)C(F)(F)c2cccc1c2 [Compound 83, (4R)-6^6-(1,1-dioxidotetrahydro-2H-thiopyran-4-yl)-2,2-difluoro-4-methyl-6^7,6^8-dihydro-5-aza-6(4,8)-pyrido[2,3-d]pyrimidina-1(4,1)-piperidina-3(1,3)-benzenacyclotridecaphan-6^7-one]
